# Results reported in patent publication US20160175401A1, “COMPOITIONS AND METHODS FOR MODULATING THERMOGENESIS USING PTH-RELATED AND EGF-RELATED COMPOUNDS” (DANA-FARBER CANCER INSTITUTE INC., priority 2013, published 2016).
# Entries after “also recorded” stand apart in the source; their conditions may differ.
# B1: HBEGF: recombinant human HBEGF (Met1-Leu148; Catalog No. 259-HE-050/CF), R&D Systems (protein)
# chain: LVTGESLERLRRGLAAGTSNPDPPTVSTDQLLPLGGGRDRKVRDLQEADLDLLRVTLSSKPQALATPNKEEHGKRKKKGKGLGKKRDPCLRKYKDFCIHGECKYVKELRAPSCICHPGYHGERCHGLSL
# B2: BTC: recombinant mouse BTC (Asp32-Gln118; Catalog No. 1025-CE-025/CF), R&D Systems (protein)
# chain: DGNTTRTPETNGSLCGAPGENCTGTTPRQKVKTHFSRCPKQYKHYCIHGRCRFVVDEQTPSCICEKGYFGARCERVDLFYLQQDRGQ
# Columns and labels:
# Assay type in all cases: cell-based, mouse
# primary white adipocytes [1] = test: Thermogenic gene expression (qRT-PCR) in primary white adipocytes; settings: for induce thermogenic gene expression, such as that of Ucp1 and Dio2: 1 μg/mL of the protein, primary white adipocytes (FIG. 6, FIG. 19E); for induce thermogenic gene expression, such as that of Ucp1 and Dio2 / effect on Ucp1 expression / thermogenic gene expression by EGF proteins: 24 hours; for effect on Ucp1 expression / thermogenic gene expression by EGF proteins: 1 μg/mL or 100 ng/mL, primary white adipocytes (FIG. 14A)
# Description: Inguinal SV fractions were obtained from 30-35 days-old male mice by the following procedure. Inguinal fat tissue was dissected, washed with PBS, minced and digested for 45 min at 37° C. in PBS containing 10 mM CaCl, 2.4 U/mL dispase II (Roche), and 1.5 U/mL collagenase D (Roche). Digested tissue was filtered through a 100-μm cell strainer and centrifuged at 600 g for 5 min to pellet the SV cells which were then resuspended in SV culture medium (DMEM/F12 [1:1; Invitrogen] plus glutamax, pen/strep, and 10% FBS), filtered through a 40-μm cell strainer, centrifugation as above, resuspended in SV culture medium and plated. SV cells were grown to confluency for adipocyte differentiation which was induced by the adipogenic cocktail containing 1 μM dexamethasone, 5 μg/mL insulin, […] isobutylmethylxanthine (DMI), and 1 μM rosiglitazone in SV culture medium. 2 days after induction, cells were maintained in SV culture medium containing 5 μg/mL insulin and 1 μM rosiglitazone. Starting at day 6, cells were maintained in SV culture medium only and treated with various molecules for […] and harvested at day 8.
# LLC cells were maintained in DMEM (Invitrogen) with 10% FBS and pen/strep. For conditioned media collection, cells were plated at ⅓ confluency. The following day, medium is changed to FreeStyle expression medium (Invitrogen) which was collected 24 hours later. For concentration of expression medium, LLC conditioned media was filtered using a 3 kilodalton (Kd) cut-off filter (Millipore). Adipocytes were maintained in SV culture media (DMEM/F12 [1:1; Invitrogen] plus glutamax, pen/strep, and 10% FBS) and conditioned media treatment experiments were performed 7 days post-differentiation. When adipocytes were treated with conditioned media for 24 hours, the treatment media were composed of 50% SV culturing medium and 50% LLC conditioned media. When conditioned medium was filtered and concentrated, adipocytes were exposed to 90% SV culturing medium and 10% concentrated LLC conditioned media.
# RNA was extracted from cultured cells or frozen tissue samples using TRIzol (Invitrogen), purified with Qiagen RNAeasy minicolums and reverse transcribed using High Capacity cDNA Reverse Transcription kit (Applied Biosystems). Resulting cDNA was analyzed by RT-qPCR. Briefly, 25 ng of cDNA and […] of each primer were mixed with SYBR® GreenER™ PCR Master Mix (Invitrogen). Reactions were performed in 384-well format using an ABI PRISM® 7900HT instrument (Applied Biosystems). Relative mRNA levels were calculated using the comparative CT method normalized to cyclophilin.
# Inguinal stroma-vascular fractions were obtained from 30-35-day-old male mice using the following procedure: Inguinal fat tissue was dissected, washed with PBS, minced and digested for 45 min at 37° C. in PBS containing 10 mM CaCl2, 2.4 Uml^−1 dispase 11 (Roche) and 1.5 U ml^−1 collagenaseD (Roche). Digested tissue was filtered through a 100-μm cell strainer and centrifuged at 600 g for 5 min to pellet the stroma-vascular cells. The pellets were then resuspended in adipocyte culture medium (DMEM/F2 (1:1, Invitrogen) plus GlutaMAX, penicillin and streptomycin, and 10% FBS), filtered through a 40-μm cell strainer, centrifuged as above, resuspended in adipocyte culture medium and plated. The stroma-vascular cells were grown to confluence for adipocyte differentiation, which was induced by an adipogenic cocktail containing 1 μM dexamethasone, 5 μg ml^−1 insulin, […] isobutylmethylxanthine (DMI) and 1 μM rosiglitazone in adipocyte culture medium. Two days after induction, cells were maintained in adipocyte culture medium containing 5 μg ml^−1 insulin and 1 μM rosiglitazone. Starting on day 6, cells were maintained in adipocyte culture medium only and treated with various molecules for 2-24 h and harvested on day 8.
# LLC cells were maintained in DMEM (Invitrogen) with 10% FBS, and penicillin and streptomycin. For conditioned medium collection, cells were plated at a 1:3 confluence.
# [2] = tested on: PKA substrates CREB and HSL; test: PKA signalling: protein phosphorylation by western blotting in primary adipocytes
# Description: UCP1 protein levels were measured by western blotting in white (FIG. 23A) and brown (FIG. 23B) adipocytes. […] Real-time triplicate readings (upper panel) and their averages (lower panel) are shown (n=4). […] The values are mean±s.e.m. Statistical analysis was conducted using the two-tailed t-test. *, P<0.05; **, P<0.005; ***, P<0.0005, compared with the control group.
# (§1) Cells were homogenized in a lysis buffer containing 50 mMTris (pH 7.4), 500 mM NaCl, 1% NP40, 20% glycerol, 5 mM EDTA and 1 mM phenylmethylsulphonyl fluoride (PMSF) supplemented with protease and phosphatase inhibitor cocktails (Roche). The homogenates were centrifuged at 13,000 r.p.m. for 10 min, and the supernatants were used as whole-cell lysates. Protein concentration was determined by Bio-Rad protein assay, and […] protein lysate was separated in each SDS-PAGE lane. The separated proteins were transferred to a polyvinylidene difluoride (PVDF)membrane, which was blotted with antibodies in TBS containing 0.05% Tween (TBS-T) and 5% BSA. For secondary antibody incubation. TBS-T containing 5% milk was used. Enhanced chemiluminescence (ECL) western blotting substrates (Pierce) were used for visualization of the results.
# UCP1 = UCP1 protein levels by western blotting in primary adipocytes
# Description: Cells were homogenized in a lysis buffer containing 50 mM Tris (pH 7.4), 500 mM NaCl, 1% NP40, 20% glycerol, 5 mM EDTA and 1 mM PMSF, supplemented with protease and phosphatase inhibitor cocktails (Roche). The homogenates were centrifuges at 13,000 rpm for 10 min and the supernatants were used as whole cell lysates. Protein concentration was determined by Bio-Rad Bradford assay and 50 μg of proteins were used in each SDS-PAGE run. PVDF membrane was blotted with UCP1 antibody (Abeam) in TBS containing 0.05% Tween and 5% BSA. For secondary antibody incubation, TBS-T containing 5% milk was used. ECL western blotting substrates from Pierce were used for visualization of the results.
# as §1
# primary white adipocytes [3] = test: Cellular oxygen consumption rate (XF24 Extracellular Flux Analyzer, Seahorse) of primary adipocytes
# Description: The cellular oxygen consumption rate (OCR) of primary adipocytes was determined using an XF24 Extracellular Flux Analyzer (Seahorse Bioscience). […] Twenty-four hours later, adipocyte culture medium was changed to DMEM lacking NaHCO3 but containing 10 mM glucose, 1 mM pyruvate and the treatment chemicals. The uncoupled and maximal OCRs were determined using […] (carbonyl cyanide p-trifluoromethoxyphenylhydrazone), respectively. Complex-1-dependent respiration was inhibited with 3 μM rotenone. Ex vivo tissue respiration was measured using a Clark electrode (Strathkelvin Instruments) as described in Cohen et al. (2014) Cell 156:304-316. Freshly isolated tissues were briefly minced and transferred to the electrode chamber containing a respiration buffer consisting of 1×DPBS (Delbecco's phosphate-buffered saline), 2% BSA, 25 mM glucose and 1 mM pyruvate. Oxygen consumption values were normalized to tissue weight.
molecule,measurement,setting,value
"C=CC(=O)Nc1ccc2ncnc(Nc3ccc(OCc4cccc(F)c4)c(Cl)c3)c2c1 [AST-1306, reference compound]",effect on LLC cell conditioned media thermogenic (browning) activity,"primary white adipocytes [1]; AST-1306 1 μM, LLC-cell-conditioned medium, 24 h (FIG. 14C, 21A)",does not inhibit or affect; also recorded: does not block; also recorded: largely unaffected
same,"inhibition of BTC, EREG and HBEGF activity (Ucp1 mRNA induction)","primary white adipocytes [1]; AST-1306 1 μM, BTC, EREG, HBEGF 100 ng/ml each, 24 h (FIG. 14B, 20C)","inhibit BTC, EREG and HBEGF activity; also recorded: completely blocked Ucp1 mRNA induction"
"O=S(=O)(NCCNC/C=C/c1ccc(Br)cc1)c1cccc2cnccc12 [H89, reference compound]","transcriptional regulation (Ucp1, Dio2) by noradrenaline, PTHrP and PTH","primary white adipocytes [1]; H89 50 μM white, 30 μM brown adipocytes, factors 2 h (FIG. 23F-23G)",completely inhibited transcriptional regulation
same,PKA signalling,"[2]; H89 50 μM white, 30 μM brown adipocytes, pretreated 1 h (FIG. 23D-23E)",blocked PKA signalling
"NC[C@H](O)c1ccc(O)c(O)c1 [norepinephrine, reference compound]",UCP1 protein levels,"UCP1; 100 nM NE, 100 ng ml^−1 PTHrP or PTH, 24 h, primary white and brown adipocytes (FIG. 23A-23B)",comparably increased UCP1 protein levels
same,UCP1 protein levels,"UCP1; 24 hour treatment, norepinephrine 100 nM, peptides 100 ng/mL, western blotting (FIG. 8D)",significantly increased
same,"oxygen consumption, including basal, uncoupled and maximal respiration","primary white adipocytes [3]; 100 nM NE, 100 ng ml^−1 PTHrP or PTH, 24 h (FIG. 23C)",significantly raised oxygen consumption
same,uncoupled respiration and maximal respiration potential,"primary white adipocytes [3]; 24 hour treatment, norepinephrine 100 nM, peptides 100 ng/mL, SeaHorse (FIG. 8D)",significantly elevate
same,phosphorylation of the PKA substrates CREB and HSL,"[2]; 100 nM NE, 100 ng ml^−1 PTHrP or PTH, 30 min, primary white and brown adipocytes (FIG. 23D-23E)",stimulated the phosphorylation
"EREG: recombinant mouse EREG (Val56-Leu101; Catalog No. 1068-EP/CF), R&D Systems","induce thermogenic gene expression, such as that of Ucp1 and Dio2",primary white adipocytes [1],most potent proteins to induce thermogenic gene expression; also recorded: most potent proteins for inducing thermogenic gene expression; also recorded: induced Ucp1 expression
same,effect on Ucp1 expression / thermogenic gene expression by EGF proteins,primary white adipocytes [1],largest effect on Ucp1 expression
"TGFA: recombinant human TGFA (Val40-Ala89; Catalog No. 239-A-100), R&D Systems",effect on Ucp1 expression / thermogenic gene expression by EGF proteins,primary white adipocytes [1],largest effect on Ucp1 expression
B1,"induce thermogenic gene expression, such as that of Ucp1 and Dio2",primary white adipocytes [1],most potent proteins for inducing thermogenic gene expression; also recorded: induced Ucp1 expression
same,"induce thermogenic gene expression, such as that of Ucp1 and Dio2",primary white adipocytes [1]; listed as HB-EGF,most potent proteins to induce thermogenic gene expression
same,effect on Ucp1 expression / thermogenic gene expression by EGF proteins,primary white adipocytes [1],largest effect on Ucp1 expression
B2,"induce thermogenic gene expression, such as that of Ucp1 and Dio2",primary white adipocytes [1],most potent proteins to induce thermogenic gene expression; also recorded: most potent proteins for inducing thermogenic gene expression; also recorded: induced Ucp1 expression
